Experimental findings from PMC5740388, “In Vitro Antibacterial Properties of Cefiderocol, a Novel Siderophore Cephalosporin, against Gram-Negative Bacteria” (Antimicrobial Agents and Chemotherapy, 2017) are described below.

What all share (test): competition with […]benzylpenicillin for PBPs
Assay type in all cases: binding

Assay [1] has as its target T1, PBP4 of E. coli NIHJ JC-2 (Escherichia coli, UniProt P24228).
T1 construct: gene dacB
To be noted: read-out: % inhibition at 4 μg/ml.

Assay [2] concerns the target T2, PBP2 of E. coli NIHJ JC-2 (Escherichia coli, UniProt P0AD65).
T2 construct: gene mrdA
T2 sequence (P0AD65 1-633): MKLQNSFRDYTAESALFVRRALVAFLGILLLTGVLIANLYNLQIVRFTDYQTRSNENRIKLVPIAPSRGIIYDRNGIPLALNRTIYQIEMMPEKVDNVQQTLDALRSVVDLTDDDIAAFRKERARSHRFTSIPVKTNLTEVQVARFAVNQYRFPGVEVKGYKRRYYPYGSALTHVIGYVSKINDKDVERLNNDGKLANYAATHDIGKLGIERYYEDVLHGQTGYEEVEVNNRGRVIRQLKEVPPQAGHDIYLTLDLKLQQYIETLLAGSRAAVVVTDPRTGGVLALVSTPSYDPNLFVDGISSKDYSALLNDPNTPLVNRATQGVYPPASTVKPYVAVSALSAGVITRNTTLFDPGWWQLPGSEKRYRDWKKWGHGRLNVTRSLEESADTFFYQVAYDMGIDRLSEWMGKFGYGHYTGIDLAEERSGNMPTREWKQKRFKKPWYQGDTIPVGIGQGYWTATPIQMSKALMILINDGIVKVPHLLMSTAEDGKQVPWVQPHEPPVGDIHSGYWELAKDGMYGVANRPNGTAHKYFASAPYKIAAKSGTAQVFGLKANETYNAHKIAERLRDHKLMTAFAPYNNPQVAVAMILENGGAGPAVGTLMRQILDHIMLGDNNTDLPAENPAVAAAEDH
To be noted: covalent.

Assay [3] concerns the target T3, PBP1b of K. pneumoniae SR22291 (Klebsiella pneumoniae, UniProt A0ACD7TXF1).
T3 construct: gene mrcB
T3 sequence (A0ACD7TXF1 1-850): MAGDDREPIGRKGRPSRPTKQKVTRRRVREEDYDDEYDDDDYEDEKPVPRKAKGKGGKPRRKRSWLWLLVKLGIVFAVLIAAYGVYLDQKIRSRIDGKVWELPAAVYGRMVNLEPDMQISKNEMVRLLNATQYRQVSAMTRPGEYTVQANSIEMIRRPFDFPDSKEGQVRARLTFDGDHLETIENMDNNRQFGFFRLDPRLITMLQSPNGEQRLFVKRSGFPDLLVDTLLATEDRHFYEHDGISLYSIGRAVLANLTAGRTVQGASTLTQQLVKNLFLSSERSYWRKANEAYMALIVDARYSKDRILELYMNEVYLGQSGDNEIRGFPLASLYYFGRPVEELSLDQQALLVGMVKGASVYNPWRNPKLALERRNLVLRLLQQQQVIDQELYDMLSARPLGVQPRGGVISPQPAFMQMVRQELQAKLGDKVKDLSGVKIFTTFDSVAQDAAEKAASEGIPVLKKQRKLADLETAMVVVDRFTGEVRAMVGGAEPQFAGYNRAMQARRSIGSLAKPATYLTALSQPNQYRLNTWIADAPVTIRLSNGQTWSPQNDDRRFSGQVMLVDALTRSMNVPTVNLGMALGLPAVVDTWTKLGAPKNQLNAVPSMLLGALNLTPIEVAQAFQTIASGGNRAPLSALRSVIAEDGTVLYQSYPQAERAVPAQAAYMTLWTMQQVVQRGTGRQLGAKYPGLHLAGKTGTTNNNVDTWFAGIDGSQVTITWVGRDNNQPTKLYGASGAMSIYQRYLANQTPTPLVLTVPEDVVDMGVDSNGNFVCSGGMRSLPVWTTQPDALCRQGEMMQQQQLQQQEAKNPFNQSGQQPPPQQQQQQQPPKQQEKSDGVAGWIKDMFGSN
To be noted: covalent.

The target in assay [4] is T4, PBP1a of E. coli NIHJ JC-2 (Escherichia coli, UniProt P02918).
T4 construct: gene mrcA
To be noted: covalent.

Assay [5] has as its target T5, PBP4 of P. aeruginosa ATCC 27853 (Pseudomonas aeruginosa, UniProt Q9HZG1).
T5 construct: gene PA3047
To be noted: covalent; read-out: IC50 (μg/ml) / P. aeruginosa ATCC 27853 / Cefiderocol.

In assay [6] the target is T1, PBP4 of E. coli NIHJ JC-2. To be noted: covalent; read-out: IC50 (μg/ml) / E. coli NIHJ JC-2 / Ceftazidime.
[7] abbreviates: read-out: IC50 (μg/ml) / E. coli NIHJ JC-2 / Cefiderocol (converted).
The mark [8] stands for this setting: read-out: IC50 (μg/ml) / E. coli NIHJ JC-2 / Ceftazidime.

Molecules are shown by their SMILES. Where two headings read alike, the source gives them in different places.

Take `CC(C)(O/N=C(\C(=O)N[C@@H]1C(=O)N2C(C(=O)[O-])=C(C[N+]3(CCNC(=O)c4ccc(O)c(O)c4Cl)CCCC3)CS[C@H]12)c1csc(N)n1)C(=O)O` [cefiderocol]: the inhibition at 4 µg/mL in assay [1] turned out to be 63%. In addition, the IC50 in assay [2] (setting [7]) was 2.82 µM; in assay [3] (read-out: IC50 (μg/ml) / K. pneumoniae SR22291 / Cefiderocol (converted)), 4.65 µM; in assay [4] (setting [7]), 5.05 µM; in assay [5], greater than 5.32 µM.
Regarding `CC(C)(O/N=C(\C(=O)N[C@@H]1C(=O)N2C(C(=O)[O-])=C(C[n+]3ccccc3)CS[C@H]12)c1csc(N)n1)C(=O)O` [ceftazidime], the IC50 in assay [6] is greater than 1.83 µM; in assay [2] (setting [8]), greater than 7.32 µM; in assay [3] (read-out: IC50 (μg/ml) / K. pneumoniae SR22291 / Ceftazidime (converted)), 4.21 µM; in assay [4] (setting [8]) it was greater than 7.32 µM; in assay [5], greater than 7.32 µM.
